Measurements reported in US12472206B2, “Pharmaceutical composition containing cerium compound as active ingredient” (priority 2020, dated 2025).
“Also recorded” adds a separate entry of the source.

Assays:
[1] = test system: adenine nephropathy model rats; assay: Animal experiment (2) (Example 7): adenine nephropathy model rats fed with cerium-containing feed, blood analysis; type: in vivo
Description: Adenine nephropathy model rats were fed with a dispersion (cerium oxide dispersion) that contains cerium(III) ion as a cerium compound containing trivalent cerium, and cerium oxide.
• Rat: Slc:Wistar rat (male) delivered at 12 weeks of age (Japan SLC, Inc.) • Powder feed: AIN-93G powder feed (Funabashi Farm Co., Ltd.) • Feed for laboratory animal: Labo MR Stock (Nosan Corporation) • Adenine: (Tokyo Chemical Industry Co., Ltd.) • Cerium oxide dispersion: Cerium oxide dispersion prepared in [Preparation of Cerium Oxide Dispersion] (aqueous dispersion of cerium oxide with 10.0% by mass cerium oxide, mole ratio of cerium oxide:cerium(III)=9:1 • Cerium(III) chloride: cerium(III) chloride heptahydrate (Nikki Corporation) • Water or hot water: water passed through a water purifier, and boiled in a pot • Mixer for feed preparation: Compact Kitchen Machine MUM4415JP (Bosch GmbH) • Manual sausage maker: sausage machine (COM4SPORT) • Wing blood collection needle for animal experiment: CL-4597 (CLEA Japan, Inc.) [Preparation of Cerium Oxide Dispersion]
A special feed was prepared by modifying step (ii) for preparing the feed for normal group, as described below. […] Approximately 100 mL of hot water was then added evenly.
(§1) A special feed was prepared by modifying steps (i) and (ii) for (2) Feed for Adenine Group, as described below. (i) (Ade+Dispersion (A)): Weighed was 246.1 g of the powder feed, which was then stirred with a kitchen machine. (ii) (Ade+Dispersion (A)): While keeping the feed under stirring, 0.625 g of adenine was added in small portions, the content was stirred with the kitchen machine for 3 minutes, the feed adhered on the wall surface was scraped off, and the content was stirred again for 3 minutes. Next, while keeping the feed under stirring, 32.7 g of cerium oxide dispersion was added in small portions, the content was stirred with the kitchen machine for 3 minutes, the feed adhered on the wall surface was scraped off, and the content was stirred again for 3 minutes. Approximately 70 mL of hot water was then added evenly.
as §1, with “(ii)” for “A special feed was prepared by modifying steps (i) and (ii) for (2) Feed for Adenine Group, as described below. (i) (Ade+Dispersion (A)): Weighed was 246.1 g of the powder feed, which was then stirred with a kitchen machine. (ii)”, “(B)):” for “(A)):”, “98.2” for “32.7”, “12” for “70”
(1) Rats were weighed, and classified into four groups.
FIGS. 12 to 15 illustrate graphs plotting on the ordinates test values of serum creatinine (CRE), blood urea nitrogen (BUN), serum phosphorus (IP), or alanine aminotransferase (ALT) of the blood samples collected at the time of the dissection, and plotting on the abscissae total molar amount of cerium per 100 g of feed.
The effect of cerium(III) chloride was examined with use of the following feeds (4-1) to (4-3), in place of the (3-1) Feed for adenine+cerium oxide dispersion (A) group, and the (3-2) Feed for adenine+cerium oxide dispersion (B) group described in Preparation of Feeds according to Example 7-1. […]

[2] = Phosphorus adsorption experiment, Example 2-3 (particle 1 vs lanthanum carbonate); type: binding; conditions: one hour
Protocol: Three mmol/L aqueous phosphoric acid solutions with pH 2.5 and pH 7.0 were prepared. The pH was adjusted with Bis-Tris HCl buffer solution and glycine-HCl buffer solution (phosphoric acid, sodium chloride, and glycine from FUJIFILM Wako Pure Chemical Corporation; Bis-Tris from Dojindo Laboratories).
A freely selectable amount of particle 1 was added to each of the aqueous solutions.
Each of these dispersions was kept stirred at 38° C. for one hour in a thermostatic chamber.
Also, a freely selectable amount of a commercially available lanthanum carbonate reagent (from Nikki Corporation) was added in the same way, and each dispersion was kept stirred at 38° C. for one hour in a thermostatic chamber.
Each solution was then centrifuged (10,000×g, 5 min) for solid-liquid separation, and the supernatant was collected.
Phosphoric acid remained in the collected supernatant was evaluated by colorimetry, with use of a commercially available phosphoric acid detection reagent (Trade name: PiBlue Phosphate Assay Kit; POPB-500) that contains molybdenum blue and malachite green.
The reciprocal of the mass of the particle required to entirely adsorb 3 mmol of phosphoric acid was defined as adsorptivity to phosphorus, and was illustrated in FIG. 6.

[3] = test system: 5/6 nephrectomized model rats; conditions: 5/6 nephrectomized rats, in feed
Protocol: Slc:Wistar rat, 5/6 nephrectomized
(1) The 5/6 nephrectomized model rats were weighed, and classified into three groups.
(2) Each group was acclimatized with MR stock feed, under ad libitum feeding and ad libitum water drinking. The feeding cage was conditioned at room temperature 22±2° C., under illumination 12 hours a day.
(3) The animals were then bred with the prepared special feed under ad libitum feeding and ad libitum water drinking. The feeding cage was conditioned similarly to the acclimatization period, at room temperature 22±2° C., under illumination 12 hours a day.
(4) On Days 0, 7, 14, 21, and 28, rats were bred in metabolic cages for 24 hours. The animals were fed with Labo MR stock on Day 0, and with the special feed on days thereafter, during which the amounts of feed consumption, water consumption, urine and feces were measured, and the urine and feces were sampled.
(5) The animals were taken out of the metabolic cage and weighed, followed by blood collection with a winged needle. Approximately 400 μL of blood was collected, incubated at room temperature for one hour, and then centrifuged (1,700×g, 20 min) to obtain serum.
(6) On the final Day 28, the animals were fasted throughout the day, and then dissected. […] The collected blood was centrifuged (1,700×g, 20 min) to obtain serum. Liver, kidney, spleen, small intestine, and stomach of the rats that were exsanguinated to death were sampled. The small intestine and stomach were dissected, removed contents, and rinsed twice with PBS. The above sequence of procedures was repeated three times to assign six animals to each group. […]
The above four items were measured with use of Hitachi 7180 automatic analyzer.
ALT was measured only for blood samples collected on the last day.

[4] = adenine nephropathy rats, in feed, blood collected at dissection

| SMILES | effects on CRE, BUN and IP relative to the cerium oxide dispersion, per molar amount of cerium ([1]; adenine group normalized at 100) [times] | alanine aminotransferase (ALT) [1, 4] | blood urea nitrogen (BUN) [1, 4] | serum creatinine (CRE) [1, 4] | serum phosphorus (IP) [1, 4] | mass of the particle required to entirely adsorb 3 mmol of phosphoric acid ([2]; pH 2.5, 38° C.) [g] | mass of the particle required to entirely adsorb 3 mmol of phosphoric acid ([2]; pH 7.0, 38° C.) [g] | blood urea nitrogen (BUN) ([3]; Days 0-28) | serum creatinine (CRE) ([3]; Days 0-28) | serum ALT (GPT) level ([3]; blood of the last day) |
| --- | --- | --- | --- | --- | --- | --- | --- | --- | --- | --- |
| O.O.O.O.O.O.O.[Ce+3].[Cl-].[Cl-].[Cl-] [cerium chloride, cerium(III) chloride heptahydrate] | 4 to 9 | equivalent to that in the normal group; also recorded: equivalent to the level of the normal group | declines depending on the cerium chloride content (mol) in 100 g of feed; also recorded: decrease as the cerium chloride content in the feed increased | declines depending on the cerium chloride content (mol) in 100 g of feed; also recorded: decrease as the cerium chloride content in the feed increased | declines depending on the cerium chloride content (mol) in 100 g of feed; also recorded: decrease as the cerium chloride content in the feed increased |  |  |  |  |  |
| O=C([O-])[O-].O=C([O-])[O-].O=C([O-])[O-].[La+3].[La+3] [lanthanum carbonate] |  |  |  |  |  | 1.15 | 5.95 | slightly increase as compared with the cerium oxide-added groups | slightly increase as compared with the cerium oxide-added groups | distinctively increased as compared with those of the non-added group |
